From ChEMBL document CHEMBL1201862, “PubChem BioAssay data set” (2004) come the findings set out here.

Test systems include NCI-H522; NCI-H460; A549; HCT-15; UACC-62; HOP-92; MDA-N; MCF7; PC-3; M14; SN12C; OVCAR-5; CCRF-CEM; SF-295; HCT-116; MDA-MB-435; SW-620; U-251; EKVX; SR.
Common to all, as to assay: inhibition of tumour cell growth, NCI panel, 48 h

Molecules are shown by their SMILES.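 Assay format: 96-well plates, 48-hour exposure. GI50 is the concentration that inhibits growth by half.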 Active and inactive are the calls of the source. No stated cut-off is given here; in the data, active = GI50 up to about 1.1 µM and inactive = higher. Some results are limits rather than exact numbers.

On to `C(=N/c1ccccc1C1SCCCS1)/c1ccccc1`, for which the GI50 with NCI-H522 was > 100 µM (inactive); in the assay with NCI-H460 it was > 100 µM (inactive); in the assay with A549, > 100 µM (inactive); with HCT-15 it was more than 100 µM; in the assay with UACC-62 it was > 100 µM (inactive); in the assay on HOP-92 it was > 100 µM (inactive). The GI50 in the assay on MDA-N, in the assay with MCF7, with PC-3, in the assay on M14, in the assay on SN12C and with OVCAR-5 was > 100 µM (inactive) each time. The GI50 in the assay with CCRF-CEM, in the assay with SF-295, with HCT-116, with MDA-MB-435, in the assay with SW-620 and in the assay on U-251 was > 100 µM (inactive) throughout. Also, the GI50 in the assay on EKVX is > 100 µM (inactive).
On to `COC(=O)C1=C(C(=O)OC)C2OC1C1C2C2(C)C(C)=C(C)C1(C)[S+]2[O-]` (stereo not drawn), for which the GI50 was 2.14 µM (inactive) in the assay with NCI-H522; 15.9 µM (inactive) with NCI-H460; 22.3 µM (inactive) with A549; 4.18 µM with HCT-15; 8.99 µM (inactive) in the assay on UACC-62; 15.8 µM (inactive) in the assay on HOP-92. For the same molecule, the GI50 in the assay on MDA-N was 11.3 µM (inactive); in the assay on MCF7, 6.28 µM (inactive); in the assay on PC-3, 16.1 µM (inactive); in the assay with M14, 8.59 µM (inactive); in the assay on SN12C, 16.6 µM (inactive); in the assay with OVCAR-5, 15.5 µM (inactive). The GI50 was 28.4 µM (inactive) with SF-295; 6.08 µM (inactive) in the assay on HCT-116; 6.73 µM (inactive) in the assay on MDA-MB-435; 4.14 µM (inactive) in the assay with SW-620; 13.8 µM (inactive) with U-251; 11.5 µM (inactive) in the assay on EKVX.
Take `CCC(C)(C)/C(CC(O)(C(F)(F)F)C(F)(F)F)=N\O`: the GI50 is > 100 µM (inactive) in the assay with NCI-H522; > 100 µM (inactive) in the assay with NCI-H460; > 100 µM (inactive) in the assay with A549; > 100 µM (inactive) in the assay with SR; more than 100 µM in the assay with HCT-15; > 100 µM (inactive) in the assay on UACC-62. Besides, the GI50 in the assay with HOP-92, in the assay with MDA-N, with PC-3, in the assay on M14, in the assay with SN12C and in the assay on OVCAR-5 was > 100 µM (inactive) throughout. For the same molecule, the GI50 in the assay with CCRF-CEM, in the assay on SF-295, in the assay on HCT-116, in the assay with MDA-MB-435, with SW-620 and in the assay with U-251 was > 100 µM (inactive) in each case. The GI50 with EKVX was > 100 µM (inactive).
As to `O=C(O)C1CCCN(CCc2c[nH]c3ccccc23)C1` (stereo not drawn), the GI50 was > 100 µM (inactive) in the assay with NCI-H522; > 100 µM (inactive) in the assay with NCI-H460; > 100 µM (inactive) in the assay with A549; more than 100 µM in the assay on HCT-15; > 100 µM (inactive) in the assay on UACC-62; > 100 µM (inactive) with HOP-92. Also, the GI50 in the assay with MDA-N, with MCF7, in the assay on PC-3, in the assay with M14, in the assay with SN12C and in the assay on OVCAR-5 was > 100 µM (inactive) throughout. The GI50 in the assay with CCRF-CEM, in the assay with SF-295, in the assay on HCT-116, in the assay on MDA-MB-435, in the assay on SW-620 and in the assay with U-251 was > 100 µM (inactive) throughout. Also, the GI50 with EKVX is > 100 µM (inactive).
`CC1(C)Cc2c(c3ccccc3c3nc4c(nc23)c2c(c3ccccc34)OC(C)(C)C2)O1`: the GI50 in the assay on NCI-H522 is > 100 µM (inactive); with NCI-H460, > 100 µM (inactive); with A549, > 100 µM (inactive); in the assay with HCT-15, more than 100 µM; in the assay on UACC-62 it was > 100 µM (inactive); in the assay with HOP-92, > 100 µM (inactive). Also, the GI50 in the assay on MDA-N, in the assay with MCF7, with PC-3, in the assay with M14, in the assay with SN12C and with OVCAR-5 was > 100 µM (inactive) each time. The GI50 in the assay with CCRF-CEM, in the assay with SF-295, in the assay on HCT-116, in the assay with MDA-MB-435, with SW-620 and in the assay with U-251 was > 100 µM (inactive) throughout. Also, the GI50 in the assay on EKVX is > 100 µM (inactive).
On to `CC(C)(C)[Si](C)(C)OC1CCOC1(O)c1ccccn1` (stereo not drawn), for which the GI50 was > 100 µM (inactive) in the assay with NCI-H522; > 100 µM (inactive) in the assay with NCI-H460; > 100 µM (inactive) with A549; more than 100 µM with HCT-15; > 100 µM (inactive) with UACC-62; > 100 µM (inactive) with HOP-92. In addition, the GI50 in the assay with MDA-N, with MCF7, in the assay with PC-3, in the assay with M14, in the assay on SN12C and in the assay on OVCAR-5 was > 100 µM (inactive) each time. For the same molecule, the GI50 in the assay with CCRF-CEM was 88.3 µM (inactive); in the assay on SF-295, > 100 µM (inactive); in the assay with HCT-116 it was > 100 µM (inactive); in the assay with MDA-MB-435, > 100 µM (inactive); with SW-620 it was > 100 µM (inactive); with U-251, 39.6 µM (inactive). The GI50 with EKVX was > 100 µM (inactive).
As to `CCC(=O)C(c1ccccc1)c1ccccn1` (stereo not drawn), the GI50 with NCI-H522 is > 100 µM (inactive); in the assay with NCI-H460, > 100 µM (inactive); with A549, > 100 µM (inactive); in the assay with HCT-15 it was more than 100 µM; in the assay on UACC-62 it was > 100 µM (inactive); with HOP-92 it was > 100 µM (inactive). In addition, the GI50 in the assay on MDA-N, with MCF7, with PC-3, in the assay with M14, in the assay with SN12C and in the assay on OVCAR-5 was > 100 µM (inactive) each time. Besides, the GI50 in the assay with CCRF-CEM, in the assay with SF-295, in the assay on HCT-116, in the assay with MDA-MB-435, with SW-620 and in the assay on U-251 was > 100 µM (inactive) throughout. The GI50 with EKVX is > 100 µM (inactive).
`CCOC(=O)c1c2ccccc2n2c(=O)n(-c3ccccc3)nnc12`: the GI50 in the assay on NCI-H460 was 30.7 µM (inactive); in the assay with A549, 63.4 µM (inactive); in the assay with HCT-15, more than 76.9 µM; in the assay on UACC-62 it was 10.4 µM (inactive); in the assay with HOP-92, > 100 µM (inactive); in the assay with MDA-N, > 42.4 µM (inactive). In addition, the GI50 in the assay with MCF7 is 0.923 µM (active); in the assay on PC-3, > 90.6 µM (inactive); in the assay on M14, 59 µM (inactive); with SN12C, > 100 µM (inactive); in the assay with OVCAR-5, > 100 µM (inactive); in the assay on CCRF-CEM, 1.4 µM (inactive). Further, the GI50 with SF-295 is 3.25 µM (inactive); with HCT-116 it was 73.8 µM (inactive); in the assay on MDA-MB-435 it was 18.7 µM (inactive); with SW-620, > 100 µM (inactive); in the assay on U-251, 98.4 µM (inactive); in the assay on EKVX, > 100 µM (inactive).
As for `COC(=O)[C@]1(c2cc3ccccc3n2S(=O)(=O)c2ccccc2)CC2CN(C(=O)OCc3ccccc3)C1C1OC(C)(C)OC21` (stereo partly drawn), the GI50 was 1.31 µM (inactive) with NCI-H522; > 100 µM (inactive) in the assay on NCI-H460; 23.9 µM (inactive) in the assay with A549; more than 100 µM in the assay with HCT-15; > 100 µM (inactive) in the assay with UACC-62; 10.2 µM (inactive) in the assay with HOP-92. In addition, the GI50 in the assay on MDA-N was > 100 µM (inactive); with MCF7 it was > 100 µM (inactive); with PC-3, > 100 µM (inactive); in the assay with M14, 80.5 µM (inactive); with SN12C, > 100 µM (inactive); in the assay on OVCAR-5 it was > 100 µM (inactive). Besides, the GI50 in the assay on CCRF-CEM, in the assay on SF-295, in the assay with HCT-116, with MDA-MB-435, in the assay on SW-620 and in the assay on U-251 was > 100 µM (inactive) throughout. Besides, in the assay with EKVX, the GI50 was > 100 µM (inactive).
Turning to `CCOC(=O)C1(C(=O)OCC)CCCN1C(=O)[C@H](CNC(=O)OC(C)(C)C)NC(=O)OCc1ccccc1`, the GI50 with NCI-H460 is > 100 µM (inactive); in the assay with A549, > 100 µM (inactive); in the assay with SR it was 51.6 µM (inactive); with HCT-15, more than 100 µM; in the assay on MDA-N, > 100 µM (inactive); in the assay on MCF7, > 100 µM (inactive). In addition, the GI50 with PC-3 is > 100 µM (inactive); in the assay on M14, > 100 µM (inactive); in the assay on SN12C, > 100 µM (inactive); with OVCAR-5, > 100 µM (inactive); in the assay on CCRF-CEM it was 17.4 µM (inactive); in the assay with SF-295, > 100 µM (inactive). The GI50 with HCT-116, in the assay on MDA-MB-435, in the assay on SW-620, with U-251 and in the assay with EKVX was > 100 µM (inactive) each time.
On to `NC(=O)NNC(=O)c1nc[nH]c1[N+](=O)[O-]`, for which the GI50 was > 100 µM (inactive) with NCI-H522; > 100 µM (inactive) with NCI-H460; > 100 µM (inactive) with A549; more than 100 µM in the assay with HCT-15; > 100 µM (inactive) with UACC-62; > 100 µM (inactive) with MDA-N. Also, the GI50 in the assay on MCF7, in the assay on PC-3, with M14, with SN12C, in the assay on OVCAR-5 and in the assay on CCRF-CEM was > 100 µM (inactive) in each case. Further, the GI50 in the assay with HCT-116, in the assay with MDA-MB-435, in the assay with SW-620, in the assay on U-251 and in the assay on EKVX was > 100 µM (inactive) throughout.
